≈ marks a conversion by molar mass, not a printed value. Calls of active or inactive are those of the source. The calls are words filed in the database; no cut-off is given here.
What was measured:
Escherichia coli [1] = assay: Antibacterial activity against Escherichia coli ATCC 25922 incubated for 16 to 20 hrs using 10^7 CFU/ml bacterial inoculum by broth microdilution method; assay type: functional; settings: time 16-20 hrs
Staphylococcus aureus [2] = assay: Antibacterial activity against Staphylococcus aureus ATCC 29213 incubated for 16 to 20 hrs using 10^5 CFU/ml bacterial inoculum by broth microdilution method; assay type: functional; settings: time 16-20 hrs
Escherichia coli [3] = assay: Bactericidal activity against Escherichia coli ATCC 25922 incubated for 20 to 24 hrs by CLSI based analysis; assay type: functional; settings: time 20-24 hrs
Staphylococcus aureus [4] = assay: Antibacterial activity against Staphylococcus aureus ATCC 29213 at pH 8.6 incubated for 16 to 20 hrs in presence of 25% foetal bovine serum by broth microdilution method; assay type: functional; settings: time 16-20 hrs
Staphylococcus aureus [5] = assay: Antibacterial activity against Staphylococcus aureus ATCC 29213 incubated for 16 to 20 hrs using 10^7 CFU/ml bacterial inoculum by broth microdilution method; assay type: functional; settings: time 16-20 hrs
Staphylococcus aureus [6] = assay: Antibacterial activity against Staphylococcus aureus ATCC 25923 infected in kunming mouse assessed as reduction in viable pathogens at 32.5 mg/kg, iv measured after 1 hr; assay type: functional, organism-based
Escherichia coli [7] = assay: Antibacterial activity against Escherichia coli ATCC 25922 incubated for 16 to 20 hrs in presence of 50% foetal bovine serum by broth microdilution method; assay type: functional; settings: time 16-20 hrs
Staphylococcus aureus [8] = assay: Antibacterial activity against Staphylococcus aureus ATCC 29213 at pH 8.6 incubated for 16 to 20 hrs in presence of 5% foetal bovine serum by broth microdilution method; assay type: functional; settings: time 16-20 hrs
Staphylococcus aureus [9] = assay: Antibacterial activity against Staphylococcus aureus ATCC 25923 incubated for 16 to 20 hrs by broth microdilution method; assay type: functional; settings: time 16-20 hrs
Staphylococcus aureus [10] = assay: Bactericidal activity against Staphylococcus aureus ATCC 29213 incubated for 20 to 24 hrs by CLSI based analysis; assay type: functional; settings: time 20-24 hrs
Staphylococcus aureus [11] = assay: Antibacterial activity against Staphylococcus aureus ATCC 29213 incubated for 16 to 20 hrs using 10^3 CFU/ml bacterial inoculum by broth microdilution method; assay type: functional; settings: time 16-20 hrs
Pseudomonas aeruginosa = assay: Antibacterial activity against Pseudomonas aeruginosa LTP-3 incubated for 16 to 20 hrs by broth microdilution method; assay type: functional; settings: time 16-20 hrs
Escherichia coli [12] = assay: Antibacterial activity against Escherichia coli ATCC 25922 incubated for 16 to 20 hrs using 10^5 CFU/ml bacterial inoculum by broth microdilution method; assay type: functional; settings: time 16-20 hrs
Escherichia coli [13] = assay: Antibacterial activity against Escherichia coli ATCC 25922 incubated for 16 to 20 hrs using 10^3 CFU/ml bacterial inoculum by broth microdilution method; assay type: functional; settings: time 16-20 hrs
Escherichia coli [14] = assay: Antibacterial activity against Escherichia coli ATCC 25922 incubated for 16 to 20 hrs by broth microdilution method; assay type: functional; settings: time 16-20 hrs
Escherichia coli [15] = assay: Antibacterial activity against Escherichia coli ATCC 25922 incubated for 16 to 20 hrs in presence of 5% foetal bovine serum by broth microdilution method; assay type: functional; settings: time 16-20 hrs
[16] = system: Staphylococcus chromogenes; assay: Antibacterial activity against Staphylococcus chromogenes incubated for 16 to 20 hrs by broth microdilution method; assay type: functional; settings: time 16-20 hrs
Escherichia coli [17] = assay: Antibacterial activity against Escherichia coli ATCC 25922 incubated for 16 to 20 hrs in presence of 10% foetal bovine serum by broth microdilution method; assay type: functional; settings: time 16-20 hrs
Escherichia coli [18] = assay: Antibacterial activity against Escherichia coli ATCC 25922 incubated for 16 to 20 hrs using 10^4 CFU/ml bacterial inoculum by broth microdilution method; assay type: functional; settings: time 16-20 hrs
Escherichia coli [19] = assay: Antibacterial activity against Escherichia coli ATCC 25922 incubated for 16 to 20 hrs in absence of foetal bovine serum by broth microdilution method; assay type: functional; settings: time 16-20 hrs
Staphylococcus aureus [20] = assay: Antibacterial activity against Staphylococcus aureus ATCC 29213 incubated for 16 to 20 hrs using 10^6 CFU/ml bacterial inoculum by broth microdilution method; assay type: functional; settings: time 16-20 hrs
Klebsiella pneumoniae = assay: Antibacterial activity against Klebsiella pneumoniae ATCC 13883 incubated for 16 to 20 hrs by broth microdilution method; assay type: functional; settings: time 16-20 hrs
Escherichia coli [21] = assay: Antibacterial activity against Escherichia coli ATCC 25922 incubated for 16 to 20 hrs using 10^6 CFU/ml bacterial inoculum by broth microdilution method; assay type: functional; settings: time 16-20 hrs
Cronobacter sakazakii = assay: Antibacterial activity against Cronobacter sakazakii ATCC 29544 incubated for 16 to 20 hrs by broth microdilution method; assay type: functional; settings: time 16-20 hrs
Escherichia coli [22] = assay: Antibacterial activity against Escherichia coli incubated for 16 to 20 hrs by broth microdilution method; assay type: functional; settings: time 16-20 hrs
[23] = system: Streptococcus dysgalactiae; assay: Antibacterial activity against Streptococcus dysgalactiae incubated for 16 to 20 hrs by broth microdilution method; assay type: functional; settings: time 16-20 hrs
Staphylococcus aureus [24] = assay: Antibacterial activity against Staphylococcus aureus ATCC 29213 incubated for 16 to 20 hrs using 10^4 CFU/ml bacterial inoculum by broth microdilution method; assay type: functional; settings: time 16-20 hrs
Staphylococcus aureus [25] = assay: Ratio of MBC to MIC for Staphylococcus aureus ATCC 29213; assay type: functional
Staphylococcus aureus [26] = assay: Antibacterial activity against Staphylococcus aureus ATCC 29213 at pH 8.6 incubated for 16 to 20 hrs in presence of 50% foetal bovine serum by broth microdilution method; assay type: functional; settings: time 16-20 hrs
Enterococcus faecium = assay: Antibacterial activity against Enterococcus faecium incubated for 16 to 20 hrs by broth microdilution method; assay type: functional; settings: time 16-20 hrs
Staphylococcus aureus [27] = assay: Antibacterial activity against Staphylococcus aureus ATCC 29213 at pH 8.6 incubated for 16 to 20 hrs in presence of 10% foetal bovine serum by broth microdilution method; assay type: functional; settings: time 16-20 hrs
Staphylococcus aureus [28] = assay: Antibacterial activity against Staphylococcus aureus ATCC 29213 at pH 8.6 incubated for 16 to 20 hrs in absence of foetal bovine serum by broth microdilution method; assay type: functional; settings: time 16-20 hrs
Staphylococcus aureus [29] = assay: Antibacterial activity against Staphylococcus aureus ATCC 29213 incubated for 16 to 20 hrs by broth microdilution method; assay type: functional; settings: time 16-20 hrs
Escherichia coli [30] = assay: Inhibition of protein synthesis in Escherichia coli ATCC 25922 assessed as reduction in protein content at […] measured upto 12 hrs by microporous enzyme labeling method relative to control; assay type: functional
Escherichia coli [31] = assay: Ratio of MBC to MIC for Escherichia coli ATCC 25922; assay type: functional
Staphylococcus aureus [32] = assay: Antibacterial activity against Staphylococcus aureus incubated for 16 to 20 hrs by broth microdilution method; assay type: functional; settings: time 16-20 hrs
Escherichia coli [33] = assay: Antibacterial activity against Escherichia coli ATCC 25922 incubated for 16 to 20 hrs in presence of 25% foetal bovine serum by broth microdilution method; assay type: functional; settings: time 16-20 hrs

`CC[C@H]1OC(=O)C[C@@H](O)[C@H](C)[C@@H](O[C@@H]2O[C@H](C)[C@@H](O)[C@H](N(C)C)[C@H]2O)[C@@H](CCN2CCCCC2)C[C@@H](C)C(=O)/C=C/C(C)=C/[C@@H]1CN1CCCCC1` [TILDIPIROSIN] was tested, and the MIC (Escherichia coli [1]) was 2 µg/mL (≈ 2.72 µM), the MIC (Staphylococcus aureus [2]) was 2 µg/mL (≈ 2.72 µM) and the MBC (Escherichia coli [3]) was 4 µg/mL (≈ 5.45 µM). The MIC (Staphylococcus aureus [4]) was 16 µg/mL, the MIC (Staphylococcus aureus [5]) was 4 µg/mL (≈ 5.45 µM) and the Activity (Staphylococcus aureus [6]) was “Active”. The MIC (Escherichia coli [7]) was 4 µg/mL, the MIC (Staphylococcus aureus [8]) was 4 µg/mL and the MIC (Staphylococcus aureus [9]) was 16 µg/mL (≈ 21.8 µM). For the same compound, the MBC (Staphylococcus aureus [10]) was over 32 µg/mL, the MIC (Staphylococcus aureus [11]) was 0.5 µg/mL (≈ 0.681 µM) and the MIC (Pseudomonas aeruginosa) was 4 µg/mL (≈ 5.45 µM). The MIC (Escherichia coli [12]) was 1 µg/mL (≈ 1.36 µM), the MIC (Escherichia coli [13]) was 0.5 µg/mL (≈ 0.681 µM) and the MIC (Escherichia coli [14]) was 1 µg/mL (≈ 1.36 µM). It also gave an MIC (Escherichia coli [15]) of 2 µg/mL, an MIC [16] of 16 µg/mL (≈ 21.8 µM) and an MIC (Escherichia coli [17]) of 2 µg/mL. The MIC (Escherichia coli [18]) was 1 µg/mL (≈ 1.36 µM), the MIC (Escherichia coli [19]) was 2 µg/mL (≈ 2.72 µM) and the MIC (Staphylococcus aureus [20]) was 4 µg/mL (≈ 5.45 µM). It also gave an MIC (Klebsiella pneumoniae) of 8 µg/mL (≈ 10.9 µM), an MIC (Escherichia coli [21]) of 2 µg/mL (≈ 2.72 µM) and an MIC (Cronobacter sakazakii) of 16 µg/mL (≈ 21.8 µM). It also gave an MIC (Escherichia coli [22]) of 16 µg/mL (≈ 21.8 µM), an MIC [23] of 32 µg/mL (≈ 43.6 µM) and an MIC (Staphylococcus aureus [24]) of 1 µg/mL (≈ 1.36 µM). For the same compound, the Ratio (Staphylococcus aureus [25]) was over 2, the MIC (Staphylococcus aureus [26]) was 16 µg/mL and the MIC (Enterococcus faecium) was 32 µg/mL (≈ 43.6 µM). For the same compound, the MIC (Staphylococcus aureus [27]) was 8 µg/mL, the MIC (Staphylococcus aureus [28]) was 4 µg/mL (≈ 5.45 µM) and the MIC (Staphylococcus aureus [29]) was 16 µg/mL (≈ 21.8 µM). The inhibition (Escherichia coli [30]) was 26.5%, the Ratio (Escherichia coli [31]) was 4 and the MIC (Staphylococcus aureus [32]) was 32 µg/mL (≈ 43.6 µM). For the same compound, the MIC (Escherichia coli [33]) was 4 µg/mL.
